How the values were obtained:
MIN6B1 cell = assay: Assay for promoting activity on insulin secretion; assay type: cell-based, mouse; conditions: 10 μM test compound, KRB-HEPES with 16.8 mM glucose, 37° C., 22 minutes; relative to DMSO = 100%
Experimental: (1) Assay for Promoting Activity on Insulin Secretion
In this assay, promoting activities on insulin secretion of the test compounds were studied using MIN6B1 cell, which was a strain of mouse pancreatic β-cells, and glibenclamide, which was a commercially available insulin secretagogue, as a reference compound. The assay procedure is given below.
MIN6B1 cells were seeded on a 48-well plate at a concentration of 1×10^5 cells/well (0.25 ml) (The medium was prepared by adding FCS (fetal calf serum) to DMEM (Dulbecco's Modified Eagle Medium) containing 25 mM glucose such that the FCS concentration became 10%). After two days, the medium was suctioned by an aspirator, each well washed four times with 0.2 ml of KRE-HEPES buffer [Kregs-Ringer-bicarbonate-N-2-hydroxyethylpiperazine-N′-2-ethanesulfonic acid; 130 mM NaCl, 4.7 mM KCl, 1.2 mM KH2PO4, 1.2 mM MgCl2.6H2O, 0.25 mM CaCl2.2H2O, 2.5 mM NaHCO3, 0.5% BSA, and 10 mM N-2-hydroxyethylpiperazine-N′-2-ethanesulfonic acid (pH 7.4)] containing 2.8 mM glucose warmed to 37° C., 0.2 ml of said buffer was again added, and the cells were incubated at 37° C. for 30 to 60 minutes. […] The samples were pipetted and diluted by 25 to 51 times, and the insulin concentrations were analyzed using an insulin assay kit (Rat Insulin [^125I] Biotrak Assay System with Magnetic Separation; Amersham BioScience K.K.). […]

ICR mice = assay: Oral glucose tolerance test on normal mouse; assay type: in vivo; conditions: at 30 minutes after glucose loading, relative to control group
Experimental: (2) Oral Glucose Tolerance Test on Normal Mouse
In this assay, preventive activities of test compounds against hyperglycemia following glucose loading were examined using normal mice and nateglinide, a commercially available oral anti-hyperglycemic agent, as a reference compound. The assay procedure is given below.
ICR mice (male, 6 weeks old) that had been preliminary bred for one week were fasted for 18 to 20 hours to use as test animals. Each test compound was dissolved in 0.5% methylcellulose solution and orally administered at 3 mg/kg (10 mg/kg for nateglinide) before glucose loading. Timing to administer the test compound was selected to be optimal for each test compound, which was 10 minutes before glucose loading for the compounds of the present invention or 30 minutes before glucose loading for nateglinide, which was a reference compound. The hypoglycemic rate (%) at 30 minutes after glucose loading was measured relative to the control group.

COc1ccc(Cl)cc1C(=O)NCCc1ccc(S(=O)(=O)NC(=O)NC2CCCCC2)cc1 [Glibenclamide, glibenclamide]
Promotion activity on insulin secretion, % (MIN6B1 cell): 122%

CC(C)[C@H]1CC[C@H](C(=O)N[C@H](Cc2ccccc2)C(=O)O)CC1 [Nateglinide, nateglinide]
Hypoglycemic rate, % (ICR mice; 10 mg/kg orally, 30 minutes before glucose loading): 26%

Fc1cc(-c2nc(N3CCSC3)c3sccc3n2)c(F)cc1Cl [Example 99]
Hypoglycemic rate, % (ICR mice; 3 mg/kg orally, 10 minutes before glucose loading): 36%
